Assay: refractive index (Na D-line) (dimensionless); xn = mol fraction of the nth substance listed
Conditions: 100 kPa, Liquid, Standard Abbe refractometry

CC12CC3CC(C)(C1)CC(C)(C3)C2 [1,3,5-trimethyladamantane] + CCCCCCCO
refractive index
Conditions	x2 = 0	x2 = 0.1001	x2 = 0.2001	x2 = 0.3002	x2 = 0.4004	x2 = 0.5001	x2 = 0.6002	x2 = 0.7001	x2 = 0.7999	x2 = 0.9002
293.15 K	1.4736	1.4695	1.4657	1.4617	1.4573	1.4524	1.4476	1.4424	1.4366	1.4303
298.15 K	1.4715	1.4677	1.4637	1.4597	1.4552	1.4504	1.4458	1.4405	1.4348	1.4286
303.15 K	1.4695	1.4652	1.4614	1.4574	1.453	1.4484	1.4434	1.4382	1.4325	1.4262
313.15 K	1.4649	1.4612	1.4571	1.453	1.4487	1.4438	1.4389	1.4341	1.4283	1.4224
323.15 K	1.4612	1.4569	1.453	1.4489	1.4445	1.4398	1.435	1.4299	1.4244	1.4182
333.15 K	1.4568	1.4526	1.4485	1.4444	1.4401	1.4354	1.4303	1.4255	1.4195	1.4138

CC12CC3CC(C)(C1)CC(C)(C3)C2 [1,3,5-trimethyladamantane] + OCC1CCCCC1
refractive index
Conditions	x2 = 0	x2 = 0.1	x2 = 0.2001	x2 = 0.2997	x2 = 0.4	x2 = 0.4994	x2 = 0.5991	x2 = 0.7	x2 = 0.801	x2 = 0.8927
293.15 K	1.4736	1.4727	1.4718	1.4711	1.4703	1.4694	1.4684	1.4673	1.4661	1.465
298.15 K	1.4715	1.4708	1.47	1.4691	1.4681	1.4672	1.4663	1.4655	1.4641	1.4631
303.15 K	1.4695	1.4686	1.4676	1.4669	1.4659	1.465	1.4643	1.4632	1.4621	1.4609
313.15 K	1.4649	1.4641	1.4633	1.4625	1.4618	1.4608	1.46	1.459	1.458	1.4568
323.15 K	1.4612	1.46	1.4589	1.4582	1.4573	1.4565	1.4556	1.4549	1.4539	1.4528
333.15 K	1.4568	1.4552	1.4545	1.4538	1.453	1.4522	1.4513	1.4504	1.4492	1.4486

CC12CC3CC(C1)CC(C)(C3)C2 [1,3-dimethyladamantane] + CCCCCCCO
refractive index
Conditions	x2 = 0	x2 = 0.1001	x2 = 0.1997	x2 = 0.2998	x2 = 0.3997	x2 = 0.4997	x2 = 0.6002	x2 = 0.7	x2 = 0.7996	x2 = 0.8999
293.15 K	1.4776	1.4735	1.4696	1.4642	1.4591	1.4541	1.4483	1.4427	1.4365	1.4299
298.15 K	1.4757	1.4714	1.4678	1.4624	1.4572	1.4519	1.4468	1.4411	1.4351	1.4282
303.15 K	1.4734	1.4695	1.4654	1.4603	1.4551	1.4495	1.4442	1.4389	1.4333	1.4265
313.15 K	1.4691	1.4646	1.4608	1.4558	1.4508	1.4457	1.4402	1.4347	1.4288	1.4223
323.15 K	1.4651	1.4606	1.4567	1.4514	1.4464	1.4411	1.4359	1.4301	1.4244	1.4178
333.15 K	1.461	1.4564	1.4527	1.4473	1.4422	1.437	1.4316	1.4262	1.4206	1.4141

CCC12CC3CC(CC(C3)C1)C2 [1-ethyladamantane] + CCCCCCCO
refractive index
Conditions	x2 = 0	x2 = 0.0999	x2 = 0.1999	x2 = 0.2988	x2 = 0.3991	x2 = 0.4998	x2 = 0.5995	x2 = 0.7	x2 = 0.8002	x2 = 0.9
293.15 K	1.4927	1.4869	1.4809	1.4746	1.4682	1.461	1.4546	1.4473	1.4397	1.4316
298.15 K	1.4906	1.4847	1.4785	1.4725	1.466	1.4594	1.4522	1.4451	1.4376	1.4298
303.15 K	1.4884	1.4827	1.4768	1.4704	1.464	1.4573	1.4499	1.4433	1.4359	1.4278
313.15 K	1.4839	1.4782	1.4722	1.466	1.4596	1.4528	1.4462	1.4389	1.4316	1.4236
323.15 K	1.4802	1.474	1.468	1.4618	1.4554	1.4486	1.4419	1.4349	1.4273	1.4198
333.15 K	1.4759	1.4697	1.4635	1.4577	1.451	1.4443	1.4373	1.4305	1.423	1.4156

CCC12CC3CC(CC(C3)C1)C2 [1-ethyladamantane] + OCC1CCCCC1
refractive index
Conditions	x2 = 0	x2 = 0.1	x2 = 0.2002	x2 = 0.2997	x2 = 0.3999	x2 = 0.4998	x2 = 0.5989	x2 = 0.7001	x2 = 0.8023	x2 = 0.8996
293.15 K	1.4927	1.4903	1.4877	1.4853	1.4828	1.4801	1.477	1.474	1.4708	1.4673
298.15 K	1.4906	1.4883	1.4861	1.4835	1.4807	1.478	1.4754	1.4721	1.4689	1.4655
303.15 K	1.4884	1.4861	1.4836	1.4812	1.4783	1.4757	1.4733	1.47	1.4668	1.4634
313.15 K	1.4839	1.4816	1.4791	1.4768	1.4741	1.471	1.4687	1.4657	1.4623	1.4593
323.15 K	1.4802	1.4775	1.4751	1.4725	1.4699	1.4672	1.4645	1.4616	1.4584	1.4553
333.15 K	1.4759	1.4725	1.4703	1.4678	1.4652	1.4627	1.4599	1.4571	1.4541	1.451

OCC1CCCCC1 [cyclohexylmethanol] + CC12CC3CC(C1)CC(C)(C3)C2
refractive index
Conditions	x1 = 0.1002	x1 = 0.1995	x1 = 0.2996	x1 = 0.4004	x1 = 0.4973	x1 = 0.6008	x1 = 0.7002	x1 = 0.7999	x1 = 0.9	x1 = 1
293.15 K	1.4759	1.4754	1.4742	1.4732	1.4719	1.4705	1.4692	1.4673	1.4655	1.4629
298.15 K	1.4738	1.4734	1.4722	1.4709	1.4698	1.4688	1.467	1.4653	1.4638	1.4612
303.15 K	1.4716	1.4712	1.47	1.4689	1.4679	1.4664	1.4651	1.4635	1.4617	1.4592
313.15 K	1.4673	1.4669	1.4656	1.4645	1.4633	1.462	1.4607	1.4584	1.4571	1.455
323.15 K	1.4626	1.4623	1.461	1.4602	1.459	1.4575	1.4564	1.4548	1.4535	1.4507
333.15 K	1.4583	1.4578	1.4565	1.4554	1.4544	1.4529	1.4514	1.45	1.4488	1.4463
